Legend:
Cx43 hemichannels = target: T1, Cx43 hemichannels (Homo sapiens, UniProt P17302); test: Extracellular ATP release after irradiation, TIME cells; type: cell-based
T1 construct: endogenous in cells; host or cells: TICAE and TIME cells (human endothelial cell lines)
Method: Hemichannels are an ATP release pathway and we therefore determined extracellular ATP after irradiation. To that purpose, TICAE and TIME cells were seeded in a 96-well plate at a density of 1×10^5 cells/well and 0.3×10^5 cells/well, respectively, in six to eight biological replicates. Three days later, cells reached 100% confluence. At 30 minutes before irradiation, cells were refreshed with 100 μl medium alone or with medium supplemented with 100 μM TAT-Gap19 (Genosphere Biotechnologies, Paris, France) to block the Cx43 hemichannels. For fractionated irradiation, cells were refreshed with 150 μl medium/well. At different time points after irradiation (1, 6 and 72 h), 1:5 ATP assay mix dissolved in ATP mix dilution buffer (Sigma-Aldrich Co. LCC, Diegem, Belgium) was added to each well. Extracellular ATP release was assessed by measuring the luminescence signal received after oxidation of luciferin and ATP to oxyluciferin and AMP using the CLARIOstar® microplate reader (BMG Labtech, Temse, Belgium). Experiments were corrected for baseline ATP signal in medium in the absence or presence of TAT-Gap19.

TIME cells = test: DNA damage, gamma H2AX and TP53BP1 foci, TIME cells; type: cell-based, human; settings: 100 μM TAT-Gap19, 0.1 and 5 Gy, 1 h p.i.
Method: To detect DNA double strand breaks after IR, TICAE and TIME cells were seeded in Nunc™ Lab-Tek™ Chamber Slide (Thermo Fisher Scientific, Asse, Belgium) in 8 replicates, at seeding density of 50 000 cells/well. Two days later, cells reached 100% confluence. At 30 min before IR, a fresh medium was added to the cells with or without 100 μM TAT-Gap19. At 1 h post irradiation, cells were fixed with 2% PFA (Sigma-Aldrich Co. LCC, Diegem, Belgium) and permeabilized with 0.25% Triton X-100 (Sigma-Aldrich Co. LCC, Diegem, Belgium) in PBS. Cells were blocked for 1 h in 1% normal goat serum (Thermo Fisher Scientific, Asse, Belgium) in Tris-NaCl (Perkin Elmer, Brussels, Belgium). Thereafter, staining with 1/300 primary anti-gamma H2AX antibody (Merck-Millipore #05-636) and 1/1000 anti-TP53BP1 antibody (Novus Biologicals #NB100-304) was performed for 1 h at 37° C. After washing 3 times with PBS, secondary Alexa Fluor 488 and 568 antibodies (Life Technologies, Merelbeke, Belgium) were applied for 1 h at 37° C. Finally, the slides were mounted using ProLong Diamond Antifade Mountant with DAPI (Life Technologies, Merelbeke, Belgium), and cells were visualized with an Eclipse Ti automated inverted wide-field epifluorescence microscope (Nikon, Brussels, Belgium) equipped with a 20×Plan Fluor objective (NA 0.6) and an Andor Ixon EMCCD camera, controlled by the MS Elements software. […]

[1] = test system: primary brain microvascular endothelial cells (pBMECs); test: γ-H2AX counts after local 3×3 mm X-ray irradiation (irradiated and bystander zones), pBMECs; type: cell-based, mouse; settings: 1 Gy, 3 h post-irradiation
Method: Cortices, from 10-12 week old mice, were isolated by removing cerebellum, striatum, optic nerves, brain white matter, outer vessels and meninges. After homogenization with a Dounce homogenizer in WBB (Washing Buffer B: HMS, 10 mM Hepes, 0.35 g/L NaHCO3, 0.1% BSA), the homogenate was mixed with 30% dextran in WBB and centrifuged at 3000×g for 25 min at 4° C. The pellet containing the vascular component was then resuspended in WBB and filtered through a 60 μm NY60 Nylon Net Filter (Millipore, Darmstadt, Germany). Following centrifugation at 1000×g for 7 min at room temperature, the pellet was digested in collagenase/dispase supplement with DNase I (Roche Diagnostics, Vilvoorde, Belgium) and TLCK (Tosyl, Lysin chloromethyl ketone, sigma-aldrich) for 33 min at 37° C. in a shaking water bath. The digested capillary suspension was then seeded after multiple washing steps on wells coated with matrigel or glass coated with Corning Cell-Tak (VWR, Leuven, Belgium). For the isolation of intact capillaries the protocol was aborted just before the digestion step.
A defined area of the cell culture dishes were exposed to X-rays (1Gy or 20 Gy) by using a small animal radiation research platform (SARRP, Xstrahl, 220 kV, 13 mA), making use of a 3×3 mm collimator. Whole dish irradiation was done using a 10×10 cm broad-beam collimator, while localized Irradiation was performed with a 3×3 mm collimator. A Gafchromic RTQA2 film, with a sensitivity of 0.02 Gy, was placed underneath the cell dishes in order to delineate the irradiated zone.
Cells were fixed for 25 min with 4% formaldehyde (VWR) and blocked for 30 min with blocking buffer (5% normal goat serum, 1% bovine serum albumin (BSA), 0.2% Triton X-100 in PBS D+). Overnight incubation with primary antibody (1/500 anti-γ-H2AX in dilution buffer, 1/10 blocking buffer in PBS D+) was followed by a 1 h incubation with 1/400 XX-biotin-goat-anti-mouse antibody in dilution buffer, followed by a 1 h incubation with 1/400 streptavidin-alexa488 in PBS D+. Nuclei were stained with 1 μg/mL DAPI in PBS D+ for 10 min and cells were kept in PBS D+ supplemented with NaN3 at 4° C. All steps except the overnight incubation which was carried out at 4° C., were carried out at room temperature and cell cultures were rinsed thoroughly with PBS D+ between all incubation steps. Imaging was performed with an automated BD Pathway 435 imaging system (10× objective, 10×10 montage resulting in an overall image size of 8.5×6.5 mm). We then quantified the number of γ-H2AX-foci positive nuclei in the directly irradiated and bystander areas and expressed the count as a percentage relative to the number of nuclei and subtracted the percentage of background γ-H2AX signal in non-irradiated paired control cultures for each experiment. For counting γ-H2AX foci, images were thresholded to remove background pixel noise below the foci level. Where applicable, results were normalized against vehicle (bar charts with a 100% vehicle bar without statistical variability or a horizontal line).

RBE4 cells = test: Irradiation-induced ATP release, RBE4 cells; type: cell-based, rat; settings: broad-beam 1 Gy, 5 min post-irradiation, BAPTA-AM 10 μM, NALC 1 mM, c-PTIO 100 μM
Method: ATP was measured using a luciferin-luciferase assay kit (Sigma-Aldrich) in combination with a luminometer plate reader (Victor3 1420 multi label counter; Perkin Elmer, Zaventem, Belgium).
Extracellular ATP measurements were initially carried out at different time-points post-irradiation, the effect of blockers on ATP release was tested at the 5 min post-irradiation time-point (time of maximum ATP release).

[2] = target: hemichannels composed of Cx43 (Homo sapiens, UniProt P17302); settings: cited from earlier work
Chain of hemichannels composed of Cx43 (P17302 whole entry): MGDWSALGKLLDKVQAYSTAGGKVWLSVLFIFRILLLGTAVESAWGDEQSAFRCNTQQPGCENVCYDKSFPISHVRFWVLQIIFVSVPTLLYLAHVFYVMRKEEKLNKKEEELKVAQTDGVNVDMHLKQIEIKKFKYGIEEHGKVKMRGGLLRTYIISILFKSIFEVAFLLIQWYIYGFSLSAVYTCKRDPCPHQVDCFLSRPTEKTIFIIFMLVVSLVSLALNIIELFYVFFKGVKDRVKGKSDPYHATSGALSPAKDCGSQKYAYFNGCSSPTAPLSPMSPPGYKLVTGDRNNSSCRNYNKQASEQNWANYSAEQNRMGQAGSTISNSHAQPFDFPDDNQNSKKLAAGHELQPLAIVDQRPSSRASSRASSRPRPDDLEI

mice liver = settings: mice treated with thioacetamide to induce liver fibrosis; cited from earlier work

T1 sequence (P17302 whole entry): as above

Substance: TAT-Gap19: connexin mimetic peptide, amino-acids 128-136 of the CL of Cx43 (SEQ ID NO: 2), Gap19 linked to TAT sequence; Cx43 hemichannel inhibitor (YGRKKRRQRRRKQIEIKKFK)
- radiation-induced ATP release (Cx43 hemichannels; 100 μM TAT-Gap19, fractionated irradiation 0.1 and 5 Gy, 72 h p.i.): significantly inhibited the 5 Gy responses only
- radiation-induced ATP release (Cx43 hemichannels; 100 μM TAT-Gap19, single 0.1 Gy, 1 h p.i.): no inhibition was observed
- radiation-induced ATP release (Cx43 hemichannels; 100 μM TAT-Gap19, single 0.1 and 5 Gy, 1, 6, 72 h p.i., most cases): significantly inhibited the radiation-induced ATP release
- gamma H2AX, TP53BP1 and colocalized foci (radiation-induced DNA damage) (TIME cells): not affected
- γ-H2AX counts in the bystander zone (normalized to vehicle) [1]: only had effect in the bystander zone
- γ-H2AX counts in the irradiated area (normalized to vehicle) [1]: only had effect in the bystander zone
- irradiation-induced ATP release (RBE4 cells): inhibited
- half-time of Cx43 hemichannel block [2]: 100 s
- SOD activity in liver (mice liver): increased SOD activity
